Data from patent US9718781B2, “Methods and compounds for treating proliferative disorders and viral infections” (University College Dublin, National University of Ireland, …, priority 2012, dated 2017).
Like-named read-outs stand apart in the source and are kept apart here.

Tested on: human platelets
Assay: U46619-induced human platelet aggregation ex vivo (platelet rich plasma)
Format: cell-based
Excerpt: A modification of the turbidimetric method originally developed by Born & Cross (Born, G. V. and Cross, M. J., The Aggregation of Blood Platelets, J Physiol, 1963, 168:178-95) is used. The principle is based on the diffraction of the light by particles. When a light beam passes through a suspension of particles, it is diffracted, depending on the number and the size of the particles in suspension.
In the Born & Cross method, a light beam passes through a platelet suspension and the quantity of light is measured by a detector placed after the sample. Upon platelet aggregation, the size of platelet aggregates will increase while the total number of free platelets will decrease. Consequently, less light will be diffracted and the detector will record an increase in light intensity. The aggregometer has been developed based on these concepts. Variations in light transmission recorded by this device reflects the platelet physiology. When an agonist of platelet aggregation is added to a platelet suspension, platelets undergo activation and shape change. This step is characterized by an increase in platelet's apparent volume and thus a decrease of transmitted light. Subsequent platelet aggregation gradually forms aggregates of increasing size. Transmitted light slightly increases until a plateau is reached. The aggregation of platelet can be confirmed after the experiment by visual direct inspection of the test tube.
Preparation of platelet suspension is achieved by blood centrifugation at 160 g for 10 minutes. The PRP is re-centrifuged at 160 g for 10 min to remove contaminating red and white blood cells. The supernatant which is collected contains the platelets rich plasma (PRP). The remaining blood is subsequently centrifuged at 900 g for 15 min in order to retrieve plasma (platelets poor plasma, PPP). PRP is diluted with PPP to reach a final concentration of 150×10^3 […] PRP is kept warmed at 37° C. in the aggregometer and the adequate dilution of drug to test is introduced in the sample. Platelet aggregation is induced after 10 minutes incubation. Light transmission (T) is measured throughout the experiment, which is ended 8 minutes after induction of aggregation. Maximal light transmission (Tmax) is determined in the sample without drugs. Minimal light transmission (Tmin) is measured in PRP without inducer.
The effect of NTP4 and the previously identified lead TP antagonist, TP20, on U46619-mediated platelet aggregation in side-by-side comparisons was performed in platelet rich plasma (PRP) using the PAP-8E platelet aggregometer.
FIG. 4A-4C show the effect of TP20 & NTP4 on U46619-mediated platelet aggregation. PRP was prepared from blood taken from healthy volunteers into syringes containing 3.8% sodium citrate and 10 μM indomethacin such that the final ratio of anticoagulant to blood was 1:9. Aliquots of PRP (300 μl) were pre-incubated for 10 min with the TP antagonists, TP20 and NTP4, where 2-fold serial dilutions from 1 μM were prepared for each, prior to stimulating platelets with 1 μM U46619, incubated at 37° C., with stirring. FIG. 4A and FIG. 4B: Representative dose-response platelet aggregation profiles for TP20 (FIG. 4A) and NTP4 (FIG. 4B), where data is presented as Percentage Aggregation, as determined by changes in light transmission using the PAP-8E Platelet Aggregation Profiler as a function of time. FIG. 4C: The dose-response curves for platelet aggregation are presented as the mean (±S.E.M.) maximum Percentage Aggregation as a function of the log of the TP antagonist concentration. Data presented is representative of ≧6 independent experiments.

[1] = PRP, PAP-8E aggregometer, 1 μM U46619, side-by-side, read-out: IC50 Value for Inhibition of U46619-Mediated Platelet Aggregation (Mean ± S.E.M.)

For `COc1ccc(-c2cccc(Oc3ccc(C#N)cc3S(=O)(=O)NC(=O)NC(C)(C)C)c2)cc1` [NTP4, N-(tert-butylcarbamoyl)-5-cyano-2-((4′-methoxy-[1,1′-biphenyl]-3-yl)oxy)benzenesulfonamide], the IC50 (Homo sapiens, Platelet, PRP, PAP-8E aggregometer, 1 μM U46619, side-by-side, read-out: IC50 Value for Inhibition of U46619-Mediated Platelet Aggregation (Mean ± S.E.M.)) was 41.5 ± 7.69 nM and the IC50 [1] was 40.3 ± 7.08 nM.
With `COc1ccc(-c2cccc(Oc3ccc([N+](=O)[O-])cc3S(=O)(=O)NC(=O)NC(C)(C)C)c2)cc1` [TP20, N-(tert-butylcarbamoyl)-2-((4′-methoxy-[1,1′-biphenyl]-3-yl)oxy)-5-nitrobenzene-sulfonamide] the IC50 (Homo sapiens, Platelet, human platelets ex vivo, Table 3, read-out: IC50 data for inhibition of U46619-induced platelet aggregation) was 4.71 nM and the IC50 [1] was 4.62 ± 0.72 nM.
